Measurements: patent US20170189507A1, “NOVEL PEPTIDES AND COMBINATION OF PEPTIDES FOR USE IN IMMUNOTHERAPY AGAINST VARIOUS CANCERS” (immatics biotechnologies GmbH, priority 2015, published 2017)

Each substance was assayed on HLA-A*24 (assay: MHC binding assay (UV-ligand exchange, beta2m ELISA), HLA-A*24). Conditions: MHC class I binding score, peptide exchange yield.
Parameters: species or system human
From the text: Candidate peptides for T cell based therapies according to the present invention were further tested for their MHC binding capacity (affinity). The individual peptide-MHC complexes were produced by UV-ligand exchange, where a UV-sensitive peptide is cleaved upon UV-irradiation, and exchanged with the peptide of interest as analyzed. Only peptide candidates that can effectively bind and stabilize the peptide-receptive MHC molecules prevent dissociation of the MHC complexes. To determine the yield of the exchange reaction, an ELISA was performed based on the detection of the light chain ([…] of stabilized MHC complexes. The assay was performed as generally described in Rodenko et al. (Rodenko et al., 2006).
96 well MAXISorp plates (NUNC) were coated over night with 2 ug/ml streptavidin in PBS at room temperature, washed 4× and blocked for 1 h at 37° C. in 2% BSA containing blocking buffer. Refolded HLA-A*02:01/MLA-001 monomers served as standards, covering the range of 15-500 ng/ml. Peptide-MHC monomers of the UV-exchange reaction were diluted 100 fold in blocking buffer. Samples were incubated for 1 h at 37° C., washed four times, incubated with 2 ug/ml HRP conjugated anti-β2m for 1 h at 37° C., washed again and detected with TMB solution that is stopped with […]. Absorption was measured at 450 nm. Candidate peptides that show a high exchange yield (preferably higher than 50%, most preferred higher than 75%) are generally preferred for a generation and production of antibodies or fragments thereof, and/or T cell receptors or fragments thereof, as they show sufficient avidity to the MHC molecules and prevent dissociation of the MHC complexes.
In the case of “160 (VYTLDIPVL; listed as Homo sapiens) [compound 160]”, the Peptide exchange is reported as “++++ (>=75% = ++++)”.
With “161 (IYLVSIPEL; listed as Homo sapiens) [compound 161]” the Peptide exchange was “++++ (>=75% = ++++)”.
For “166 (YYVESGKLF; listed as Homo sapiens) [compound 166]”, the Peptide exchange was “++++ (>=75% = ++++)”.
For “168 (KYQDILETI; listed as Homo sapiens) [compound 168]”, the Peptide exchange was “++++ (>=75% = ++++)”.
With “172 (TYTTVPRVAF; listed as Homo sapiens) [compound 172]” the Peptide exchange was “++++ (>=75% = ++++)”.
“173 (IYSWILDHF; listed as Homo sapiens) [compound 173]” was tested, and the Peptide exchange was “++++ (>=75% = ++++)”.
For “175 (YYEVHKELF; listed as Homo sapiens) [compound 175]”, the Peptide exchange was “++++ (>=75% = ++++)”.
In the case of “177 (VYPWLGALL; listed as Homo sapiens) [compound 177]”, the Peptide exchange is reported as “++++ (>=75% = ++++)”.
With “179 (MYDSYWRQF; listed as Homo sapiens) [compound 179]” the Peptide exchange was “++++ (>=75% = ++++)”.
With “181 (LYLDIINLF; listed as Homo sapiens) [compound 181]” the Peptide exchange was “++++ (>=75% = ++++)”.
With “184 (VFQNFPLLF; listed as Homo sapiens) [compound 184]” the Peptide exchange was “++++ (>=75% = ++++)”.
With “186 (IFPQFLYQF; listed as Homo sapiens) [compound 186]” the Peptide exchange was “++++ (>=75% = ++++)”.
With “187 (TYLRDQHFL; listed as Homo sapiens) [compound 187]” the Peptide exchange was “++++ (>=75% = ++++)”.
“192 (SYALLTYMI; listed as Homo sapiens) [compound 192]” was tested, and the Peptide exchange was “++++ (>=75% = ++++)”.
For “193 (RFHPTPLLL; listed as Homo sapiens) [compound 193]”, the Peptide exchange was “++++ (>=75% = ++++)”.
In the case of “194 (EFGSLHLEFL; listed as Homo sapiens) [compound 194]”, the Peptide exchange is reported as “+ (<20% = +)”.
For “195 (TYSVSFPMF; listed as Homo sapiens) [compound 195]”, the Peptide exchange was “++++ (>=75% = ++++)”.
For “202 (VYWDSAGAAHF; listed as Homo sapiens) [compound 202]”, the Peptide exchange was “++++ (>=75% = ++++)”.
For “210 (IYTMIYRNL; listed as Homo sapiens) [compound 210]”, the Peptide exchange was “++++ (>=75% = ++++)”.
For “211 (YYLEVGKTLI; listed as Homo sapiens) [compound 211]”, the Peptide exchange was “++++ (>=75% = ++++)”.
In the case of “216 (QYSSVFKSL; listed as Homo sapiens) [compound 216]”, the Peptide exchange is reported as “++++ (>=75% = ++++)”.
With “217 (FFPPTRQMGLLF; listed as Homo sapiens) [compound 217]” the Peptide exchange was “++++ (>=75% = ++++)”.
“227 (IFLDYEAGTLSF; listed as Homo sapiens) [compound 227]” was tested, and the Peptide exchange was “++++ (>=75% = ++++)”.
With “228 (KYTSWYVAL; listed as Homo sapiens) [compound 228]” the Peptide exchange was “++++ (>=75% = ++++)”.
“267 (KYMVYPQTF; listed as Homo sapiens) [compound 267]” was tested, and the Peptide exchange was “++++ (>=75% = ++++)”.
With “271 (LYHDIFSRL; listed as Homo sapiens) [compound 271]” the Peptide exchange was “++++ (>=75% = ++++)”.
In the case of “272 (QYLQDAYSF; listed as Homo sapiens) [compound 272]”, the Peptide exchange is reported as “++++ (>=75% = ++++)”.
“274 (AYLHSHALI; listed as Homo sapiens) [compound 274]” was tested, and the Peptide exchange was “++++ (>=75% = ++++)”.
“276 (VYGFQWRHF; listed as Homo sapiens) [compound 276]” was tested, and the Peptide exchange was “++++ (>=75% = ++++)”.
With “277 (VYQGHTALL; listed as Homo sapiens) [compound 277]” the Peptide exchange was “++++ (>=75% = ++++)”.
In the case of “278 (RYISDQLFTNF; listed as Homo sapiens) [compound 278]”, the Peptide exchange is reported as “++++ (>=75% = ++++)”.
With “280 (RYPDNLKHLYL; listed as Homo sapiens) [compound 280]” the Peptide exchange was “++++ (>=75% = ++++)”.
